# Assay results taken from patent US8759535B2, “Substituted fused imidazole derivatives, pharmaceutical compositions, and methods of use thereof” (High Point Pharmaceuticals, LLC, priority 2010, dated 2014).
# Counter-ions that a name gives are not always drawn.
# Tested on: HMOX1
# Test: HMOX1 Protein Assay (immunostaining of HO-1 in NHLF cells, GE InCell 1000)
# Type: cell-based
# Details: Homo sapiens, fold change above DMSO treated cells, 16 h; for fold induction at 5 µM: 5 μM compound; for fold induction at 3 µM: 3 μM compound (asterisk)
# Summary of the method: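 Fold induction of HO-1 over vehicle, normally at 5 μM compound (asterisk marks 3 μM), in 0.8% DMSO medium. Normal human lung fibroblasts were treated 16 h, then paraformaldehyde-fixed, anti-HO-1/Alexa 488 stained with Hoechst, and read by high-content imaging.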
Structure (SMILES),fold induction at 5 µM,fold induction at 3 µM
"CCn1c(Nc2nc3ccc(Cl)cc3s2)nc2cc(C(=O)NC)ccc21 [Example 174, 2-(6-Chloro-benzothiazol-2-ylamino)-1-ethyl-1H-benzoimidazole-5-carboxylic acid methylamide]",26.2,
"C[C@@H](O)CN1CCC(NC(=O)c2ccc3c(c2)nc(Nc2nc4ccc(OC(F)(F)F)cc4s2)n3C)C1 (stereo partly drawn) [Example 294, 1-Methyl-2-(6-trifluoromethoxy-benzothiazol-2-ylamino)-1H-benzoimidazole-5-carboxylic acid [1-((R)-2-hydroxy-propyl)-pyrrolidin-3-yl]-amide]",29.4,
"CCn1c(Nc2nc3ccc(C(F)(F)F)cc3s2)nc2cc(C(=O)NCC(=O)N(C)C)ccc21 [Example 187, 1-Ethyl-2-(6-trifluoromethyl-benzothiazol-2-ylamino)-1H-benzoimidazole-5-carboxylic acid dimethylcarbamoylmethyl-amide]",18.4,
"Cn1c(Nc2nc3ccc(Cl)cc3s2)nc2cc(C(=O)NCCOCCCO)ccc21 [Example 248, 2-(6-Chloro-benzothiazol-2-ylamino)-1-methyl-1H-benzoimidazole-5-carboxylic acid [2-(3-hydroxy-propoxy)-ethyl]-amide]",58.7,
"Cn1c(Nc2nc3ccc(OC(F)(F)F)cc3s2)nc2cc(C(=O)NCCOCCOCCO)ccc21 [Example 256, 1-Methyl-2-(6-trifluoromethoxy-benzothiazol-2-ylamino)-1H-benzoimidazole-5-carboxylic acid {2-[2-(2-hydroxy-ethoxy)-ethoxy]-ethyl}-amide]",48,
"CN(C)C1CCN(C(=O)CNC(=O)c2ccc3c(c2)nc(Nc2nc4ccc(OC(F)(F)F)cc4s2)n3C)CC1 [Example 455, 1-Methyl-2-(6-trifluoromethoxy-benzothiazol-2-ylamino)-1H-benzoimidazole-5-carboxylic acid [2-(4-dimethylamino-piperidin-1-yl)-2-oxo-ethyl]-amide]",80.4,
"C[C@H](CO)OCCNC(=O)c1ccc2c(c1)nc(Nc1nc3ccc(OC(F)(F)F)cc3s1)n2C [Example 242, 1-Methyl-2-(6-trifluoromethoxy-benzothiazol-2-ylamino)-1H-benzoimidazole-5-carboxylic acid [2-((R)-2-hydroxy-1-methyl-ethoxy)-ethyl]-amide]",,28.1
"Cn1c(Nc2nc3ccc(OC(F)(F)F)cc3s2)nc2cc(C(=O)NCCOCC(C)(C)O)ccc21 [Example 245, 1-Methyl-2-(6-trifluoromethoxy-benzothiazol-2-ylamino)-1H-benzoimidazole-5-carboxylic acid [2-(2-hydroxy-2-methyl-propoxy)-ethyl]-amide]",33.1,
"Cn1c(Nc2nc3ccc(OC(F)(F)F)cc3s2)nc2cc(C(=O)NCC(=O)N3C[C@H](O)[C@@H](O)C3)ccc21 [Example 407, 1-Methyl-2-(6-trifluoromethoxy-benzothiazol-2-ylamino)-1H-benzoimidazole-5-carboxylic acid [2-((3S,4S)-3,4-dihydroxy-pyrrolidin-1-yl)-2-oxo-ethyl]-amide]",7.73,
"Cn1c(Nc2nc3ccc(OC(F)(F)F)cc3s2)nc2cc(C(=O)NCc3nccs3)ccc21 [Example 96, 1-Methyl-2-(6-trifluoromethoxy-benzothiazol-2-ylamino)-1H-benzoimidazole-5-carboxylic acid (thiazol-2-ylmethyl)-amide]",12,
"Cn1c(Nc2nc3ccc(OC(F)(F)F)cc3s2)nc2cc(C(=O)NCCNS(C)(=O)=O)ccc21 [Example 322, 1-Methyl-2-(6-trifluoromethoxy-benzothiazol-2-ylamino)-1H-benzoimidazole-5-carboxylic acid (2-methanesulfonylamino-ethyl)-amide]",36,
"C[C@@H](NC(=O)c1ccc2c(c1)nc(Nc1nc3ccc(C(F)(F)F)cc3s1)n2C)C(=O)N1CCN(C)CC1 [Example 470, 1-Methyl-2-(6-trifluoromethyl-benzothiazol-2-ylamino)-1H-benzoimidazole-5-carboxylic acid [(R)-1-methyl-2-(4-methyl-piperazin-1-yl)-2-oxo-ethyl]-amide]",,24.5
"Cn1c(Nc2nc3ccc(OC(F)(F)F)cc3s2)nc2cc(C(=O)N[C@@H]3[C@@H](O)[C@H](O)[C@@H](CO)O[C@@H]3O)ccc21 [Example 283, 1-Methyl-2-(6-trifluoromethoxy-benzothiazol-2-ylamino)-1H-benzoimidazole-5-carboxylic acid ((2S,3R,4R,5S,6R)-2,4,5-trihydroxy-6-hydroxymethyl-tetrahydro-pyran-3-yl)-amide]",30.2,
"COCCCNC(=O)c1ccc2c(c1)nc(Nc1nc3ccc(OC(F)(F)F)cc3s1)n2C [Example 19, 1-Methyl-2-(6-trifluoromethoxy-benzothiazol-2-ylamino)-1H-benzoimidazole-5-carboxylic acid (3-methoxy-propyl)-amide]",21.1,
"Cn1c(Nc2nc3ccc(OC(F)(F)F)cc3s2)nc2cc(C(=O)NCCCCO)c(F)cc21 [Example 222, 6-Fluoro-1-methyl-2-(6-trifluoromethoxy-benzothiazol-2-ylamino)-1H-benzoimidazole-5-carboxylic acid (4-hydroxy-butyl)-amide]",49.9,
"COCCn1c(Nc2nc3ccc(OC(F)(F)F)cc3s2)nc2cc(C(=O)NCCOCCO)ccc21 [Example 241, 1-(2-Methoxy-ethyl)-2-(6-trifluoromethoxy-benzothiazol-2-ylamino)-1H-benzoimidazole-5-carboxylic acid [2-(2-hydroxy-ethoxy)-ethyl]-amide]",23.7,
"CCSCCNC(=O)c1ccc2c(c1)nc(Nc1nc3ccc(OC(F)(F)F)cc3s1)n2C [Example 107, 1-Methyl-2-(6-trifluoromethoxy-benzothiazol-2-ylamino)-1H-benzoimidazole-5-carboxylic acid (2-ethylsulfanyl-ethyl)-amide]",18.6,
"COc1cc2c(cc1C(=O)NCC(=O)N(C)C)nc(Nc1nc3ccc(OC(F)(F)F)cc3s1)n2C [Example 63, 6-Methoxy-1-methyl-2-(6-trifluoromethoxy-benzothiazol-2-ylamino)-1H-benzoimidazole-5-carboxylic acid dimethylcarbamoylmethyl-amide]",9.8,
"COC(=O)c1ccc2c(c1)nc(Nc1nc3ccc(C(F)(F)F)cc3s1)n2C [Example 23, 1-Methyl-2-(6-trifluoromethyl-benzothiazol-2-ylamino)-1H-benzoimidazole-5-carboxylic acid methyl ester]",4.11,
"Cn1c(Nc2nc3ccc(Cl)cc3s2)nc2cc(C(=O)NCCCN3CCCC3)ccc21 [Example 354, 2-(6-Chloro-benzothiazol-2-ylamino)-1-methyl-1H-benzoimidazole-5-carboxylic acid (3-pyrrolidin-1-yl-propyl)-amide]",,17
"CN(C)C(=O)C1(NC(=O)c2ccc3c(c2)nc(Nc2nc4ccc(OC(F)(F)F)cc4s2)n3C)CC1 [Example 150, 1-Methyl-2-(6-trifluoromethoxy-benzothiazol-2-ylamino)-1H-benzimidazole-5-carboxylic acid (1-dimethylcarbamoyl-cyclopropyl)-amide]",41.6,
"CN1CCCCC1CNC(=O)c1ccc2c(c1)nc(Nc1nc3ccc(Cl)cc3s1)n2C (stereo not drawn) [Example 318, 2-(6-Chloro-benzothiazol-2-ylamino)-1-methyl-1H-benzoimidazole-5-carboxylic acid (1-methyl-piperidin-2-ylmethyl)-amide]",11.9,
"Cn1c(Nc2nc3cc(F)c(F)cc3s2)nc2cc(C(=O)NCCO)ccc21 [Example 36, 2-(5,6-Difluoro-benzothiazol-2-ylamino)-1-methyl-1H-benzoimidazole-5-carboxylic acid (2-hydroxy-ethyl)-amide]",13.8,
"Cn1c(Nc2nc3ccc(Cl)cc3s2)nc2cc(C(=O)N[C@H]3CC[C@H](C(=O)O)CC3)ccc21 [Example 378, 4-{[2-(6-Chloro-benzothiazol-2-ylamino)-1-methyl-1H-benzoimidazole-5-carbonyl]-amino}-trans-cyclohexanecarboxylic acid]",24.9,
"Cn1c(Nc2nc3ccc(Cl)cc3s2)nc2cc(C(=O)NCCN3CCC(F)(F)CC3)ccc21 [Example 335, 2-(6-Chloro-benzothiazol-2-ylamino)-1-methyl-1H-benzoimidazole-5-carboxylic acid [2-(4,4-difluoro-piperidin-1-yl)-ethyl]-amide]",18.9,
"CNC1CCN(C(=O)CNC(=O)c2ccc3c(c2)nc(Nc2nc4ccc(Cl)cc4s2)n3C)CC1 [Example 454, 2-(6-Chloro-benzothiazol-2-ylamino-1-methyl-1H-benzoimidazole-5-carboxylic acid [2-(4-methylamino-piperidin-1-yl)-2-oxo-ethyl]-amide hydrochloride]",62.2,
"COCCNC(=O)c1ccc2c(c1)nc(Nc1nc3cc(F)c(F)cc3s1)n2C [Example 37, 2-(5,6-Difluoro-benzothiazol-2-ylamino)-1-methyl-1H-benzoimidazole-5-carboxylic acid (2-methoxy-ethyl)-amide]",16.4,
"Cc1ccc2nc(Nc3nc4cc(C(=O)O)ccc4n3C)sc2c1 [Example 120, 1-Methyl-2-(6-methyl-benzothiazol-2-ylamino)-1H-benzimidazole-5-carboxylic acid]",1.7,
"CN(C)CC(=O)N1CCC(CNC(=O)c2ccc3c(c2)nc(Nc2nc4ccc(Cl)cc4s2)n3C)CC1 [Example 314, 2-(6-Chloro-benzothiazol-2-ylamino)-1-methyl-1H-benzoimidazole-5-carboxylic acid [1-(2-dimethylamino-acetyl)-piperidin-4-ylmethyl]-amide]",79.7,
"CNC(=O)c1ccc2c(c1)nc(Nc1nc3ccc(C)cc3s1)n2C [Example 128, 2-(6-Methyl-benzothiazol-2-ylamino)-1-methyl-1H-benzimidazole-5-carboxylic acid methylamide]",32.7,
